# Laboratory results published in patent US20110319464A1, “METHODS FOR TREATING BENIGN PROSTATIC HYPERPLASIA” (KISSEI PHARMACEUTICAL CO., LTD., priority 2007, published 2011).
# Columns and labels:
# symptoms of BPH [1] = test: Study B: 4 mg Silodosin Twice Daily (KMD-303), Japanese Phase 3 Study; format: in vivo, human; conditions: 4 mg twice daily
# Procedure: Safety was assessed by monitoring adverse events, clinical laboratory measurements, vital signs, and physical exams. […] In addition, the results for IPSS/AUASS for studies A, B, D and E are illustrated in FIGS. 3 to 6, respectively, and the results for Qmax for studies A, B, D and E are illustrated in FIGS. 7 to 10, respectively.
# clinical = conditions: male, human
# symptoms of BPH [2] = test: Study E: 8 mg Silodosin Once Daily (SI04010), U.S. Phase 3 Study; format: in vivo, human; conditions: 8 mg once daily
# Excerpt: In addition, the results for IPSS/AUASS for studies A, B, D and E are illustrated in FIGS. 3 to 6, respectively, and the results for Qmax for studies A, B, D and E are illustrated in FIGS. 7 to 10, respectively.
# [3] = Pharmacokinetic Study on Silodosin (Study US011), once daily for seven days, fed state; conditions: for Cmax: Day 7, mean (SD)
# [4] = test system: LUTS associated with benign prostatic hyperplasia; conditions: 4 mg silodosin twice daily; cited from earlier work
# [5] = immediate-release dosage form once daily, steady state
smiles,measurement,setting,value
C[C@H](Cc1cc2c(c(C(N)=O)c1)N(CCCO)CC2)NCCOc1ccccc1OCC(F)(F)F [Silodosin],Incidence of Adverse Events: Dizziness,symptoms of BPH [1],2.3 % of patients
same,Incidence of Adverse Events: Orthostatic Hypotension,symptoms of BPH [1],3.4 % of patients
same,Incidence of Adverse Events: Syncope,symptoms of BPH [1],0 % of patients
same,IPSS/AUASS baseline value,symptoms of BPH [1]; Week 0,17.1
same,Maximum Flow Rate baseline value,symptoms of BPH [1]; Week 0,9.89 mL/s
same,Mean Change From Baseline (CFB) in IPSS/AUASS,symptoms of BPH [1]; Week 1,−3.4
same,Mean Change From Baseline (CFB) in IPSS/AUASS,symptoms of BPH [1]; Week 2,−4.9
same,Mean Change From Baseline (CFB) in Maximum Flow Rate,symptoms of BPH [1]; Week 2,2.23 mL/s
same,Mean Change From Baseline (CFB) in IPSS/AUASS,symptoms of BPH [1]; Week 4,−6.3
same,Mean Change From Baseline (CFB) in Maximum Flow Rate,symptoms of BPH [1]; Week 4,2.18 mL/s
same,Mean Change From Baseline (CFB) in IPSS/AUASS,symptoms of BPH [1]; Week 8,−7.7
same,Mean Change From Baseline (CFB) in Maximum Flow Rate,symptoms of BPH [1]; Week 8,2.38 mL/s
same,Mean Change From Baseline (CFB) in IPSS/AUASS,symptoms of BPH [1]; Week 12,−8.9
same,Mean Change From Baseline (CFB) in Maximum Flow Rate,symptoms of BPH [1]; Week 12,2.33 mL/s
same,concentration at 12 h,"clinical; in vivo, 8 mg",9.45 ng/mL
same,Cmax,"clinical; plasma, 4 mg",27.6 ng/mL
same,Tmax,"clinical; plasma, 4 mg",2 h
same,concentration at 0.3 h,"clinical; plasma, 4 mg",0 ng/mL
same,concentration at 8 h,"clinical; plasma, 4 mg",4.83 ng/mL
same,concentration at 12.25 h,"clinical; plasma, 4 mg",1.8 ng/mL
same,concentration at 13 h,"clinical; plasma, 4 mg",9.77 ng/mL
same,concentration at 14 h,"clinical; plasma, 4 mg",31.5 ng/mL
same,concentration at 15 h,"clinical; plasma, 4 mg",32.5 ng/mL
same,concentration at 18 h,"clinical; plasma, 4 mg",7.89 ng/mL
same,concentration at 20 h,"clinical; plasma, 4 mg",5.93 ng/mL
same,half-life,"clinical; plasma, 4 mg",10.7 h
same,Cmax,"clinical; plasma, 8 mg",63.2 ng/mL
same,Tmax,"clinical; plasma, 8 mg",1.5 h
same,concentration at 145.5 h,"clinical; plasma, 8 mg",67.9 ng/mL
same,half-life,"clinical; plasma, 8 mg",11.2 h
same,concentration at 2 h,"clinical; plasma, oral, 8 mg",54.6 ng/mL
same,concentration at 3 h,"clinical; plasma, oral, 8 mg",42.8 ng/mL
same,concentration at 4 h,"clinical; plasma, oral, 8 mg",33.2 ng/mL
same,concentration at 6 h,"clinical; plasma, oral, 8 mg",18.5 ng/mL
same,Incidence of Adverse Events: Dizziness,symptoms of BPH [2],3.9 % of patients
same,Incidence of Adverse Events: Orthostatic Hypotension,symptoms of BPH [2],2.6 % of patients
same,Mean Change From Baseline (CFB) in Maximum Flow Rate,symptoms of BPH [2]; 2-6 hrs after 1st dose,2.9 mL/s
same,IPSS/AUASS baseline value,symptoms of BPH [2]; Week 0,21.2
same,Maximum Flow Rate baseline value,symptoms of BPH [2]; Week 0,8.4 mL/s
same,Mean Change From Baseline (CFB) in IPSS/AUASS,symptoms of BPH [2]; Week 0.5,−4.4
same,Mean Change From Baseline (CFB) in IPSS/AUASS,symptoms of BPH [2]; Week 1,−5.0
same,Mean Change From Baseline (CFB) in Maximum Flow Rate,symptoms of BPH [2]; Week 1,2.9 mL/s
same,Mean Change From Baseline (CFB) in IPSS/AUASS,symptoms of BPH [2]; Week 2,−5.6
same,Mean Change From Baseline (CFB) in Maximum Flow Rate,symptoms of BPH [2]; Week 2,2.9 mL/s
same,Mean Change From Baseline (CFB) in IPSS/AUASS,symptoms of BPH [2]; Week 4,−6.2
same,Mean Change From Baseline (CFB) in Maximum Flow Rate,symptoms of BPH [2]; Week 4,2.7 mL/s
same,Mean Change From Baseline (CFB) in IPSS/AUASS,symptoms of BPH [2]; Week 12,−6.6
same,Mean Change From Baseline (CFB) in Maximum Flow Rate,symptoms of BPH [2]; Week 12,3.1 mL/s
same,Incidence of Adverse Events: Syncope,"symptoms of BPH [2]; one subject, using excluded medication Prazosin",0.4^1 % of patients
same,AUC,"[3]; 4 mg once daily, Day 1, mean",169.0 ng/mL
same,Mean Tmax,"[3]; 4 mg once daily, Day 7",3.0 h
same,AUC,"[3]; 4 mg once daily, Day 7, mean",171 ng/mL
same,t ½,"[3]; 4 mg once daily, Day 7, mean",12.5 h
same,Cmax,[3]; 4 mg once daily,37.2 (18.7) ng/ml
same,AUC,"[3]; 8 mg once daily, Day 1, mean",413.0 ng/mL
same,AUC,"[3]; 8 mg once daily, Day 7, mean",396 ng/mL
same,t ½,"[3]; 8 mg once daily, Day 7, mean",10.6 h
same,Cmax,[3]; 8 mg once daily,73.4 (32.4) ng/ml
same,time after administration at which Cmax is reached,[3]; [5],about 2 hours
same,time after administration at which plasma concentration falls to near baseline,[3]; [5],about 12 hours
same,efficacy in treating LUTS associated with BPH compared with 0.2 mg tamsulosin once daily,[4],comparable efficacy
